Measurements as given in patent US20230293535A1, “ERBB/BTK INHIBITORS” (Dizal (Jiangsu) Pharmaceutical Co., Ltd., priority 2018, published 2023).
Structures can show the parent of a compound that is named as a salt. Where two headings read alike, the source gives them in different places.

Legend:
Type in all cases: cell-based
[1] = target: T1, human EGFR exon 20 H773_V774insNPH (Homo sapiens, UniProt P00533, INS773NPH); assay: EGFR Exon20 NPH insertion cellular phosphorylation inhibition (MSD pEGFR Y1068/total EGFR); conditions: Ba/F3 EGFR NPH ins cells, 4 h compound, p-EGFR(Y1068)/total EGFR;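 further: IL3-independent Ba/F3 cells with constitutively phosphorylated EGFR, compound exposure at 37 °C under 5% CO2, electrochemiluminescent MSD measurement of the p-EGFR to total EGFR ratio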
T1 construct: host or cells: Ba/F3

[2] = target: T2, human EGFR exon 20 V769_D770insASV (Homo sapiens, UniProt P00533, INS769ASV); assay: EGFR Exon20 ASV insertion cellular phosphorylation inhibition (MSD pEGFR Y1068/total EGFR); conditions: Ba/F3 EGFR ASV ins cells, 4 h compound, p-EGFR(Y1068)/total EGFR;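 further: electrochemiluminescent readout on an MSD SECTOR Imager, IL3-independent transduced cells in medium with 1% FBS, compound concentration series at 37 °C and 5% CO2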
T2 construct: expressed in transfected cells; host or cells: Ba/F3 (DSMZ ACC-300), lentiviral transduction, puromycin selection, IL3 depletion

EGFR L858R&T790M = target: T3, EGFR L858R&T790M (Homo sapiens, UniProt P00533, L858R/T790M); assay: EGFR L858R and T790M cellular phosphorylation inhibition in NCI-H1975 (MSD); conditions: NCI-H1975 cells, 4 h compound, p-EGFR(Y1068)/total EGFR; read-out: EGFR L858R and T790M mutation IC50;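 further: phosphorylated and total EGFR detected by electrochemiluminescence, cells exposed to compound in medium containing 1% FBS at 37 °C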
T3 construct: host or cells: NCI-H1975

[3] = target: T4, human Her2 exon 20 insertion mutation YVMA (Homo sapiens, UniProt P04626, INS775YVMA); assay: Her2 Exon 20 YVMA insertion cellular phosphorylation inhibition (MSD p-Her2 Y1248/total Her2); conditions: Her2 YVMAins cells, 4 h compound;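 further: lentivirally transduced NIH-3T3 cells in 1% FBS medium, electrochemiluminescent MSD read-out, graded compound concentrations at 37 °C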
T4 construct: expressed in transfected cells; host or cells: NIH-3T3, lentiviral transduction, puromycin selection

WT EGFR = target: T5, WT EGFR (Homo sapiens, UniProt P00533); assay: WT EGFR cellular phosphorylation inhibition in A-431 (hEGF stimulated, MSD); conditions: A431 cells, 4 h compound, then 100 ng/ml hEGF 10 min;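 further: electrochemiluminescence read-out of EGFR Tyr1068 phosphorylation expressed as ratio to total EGFR, cells kept in medium with 1% FBS, compounds tested as a concentration series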
T5 construct: host or cells: A-431

Ba/F3 EGFR NPH ins cells = assay: Cell proliferation, Ba/F3 EGFR NPH ins (CellTiter-Glo, 72 h); conditions: Ba/F3 EGFR, 72 h;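 further: IL3-independent cells carrying constitutively phosphorylated EGFR, compound dilution series, viable cells quantified by ATP luminescence, growth relative to DMSO wells after subtracting pre-dosing (day 0) baseline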
Experimental: Similar to recombinant human EGFR exon 20 H769_V770insASV Ba/F3 cell line, the recombinant human EGFR exon 20 H773_V774insNPH Ba/F3 cell line also expresses constitutively phosphorylated EGFR protein and proliferates in the absence of IL3, which could be used for in vitro PD and anti-proliferation assays.
WT or mutant cells were seeded in 384 well plates at appropriate concentrations with corresponding growth media supplemented with 10% FBS, for each experiment, identical plates were prepared in duplicates, and the plates were incubated overnight. On the next day, one of each duplicated plates was dosed with tested compounds at a series of concentrations, and another one of the duplicated plate was analysied for G0 value. The dosed plates were incubate for another 72 h at 37° C. with 5% CO2 and the number of viable cells in each well of the G0 plates or the dosed plates were measured by CellTiter-Glo® Luminescent Cell Viability Assay (Promega). This assay is a luminescent method for determining the number viable cells through measurement of cellular ATP concentration by detection of luciferase activity. Detection reagents (15 µl) was dispensed into per well, and the plates were incubate for 30 min at room temperature. Then, the luminescence in each well was measured using the Envision plate reader (PerkinElmer). The percentage of proliferation was calculated based on the formula: %Proliferation= 100 × (G3 value of sample well-Go value)/(G3 value of DMSO control-Go value).

Ba/F3 EGFR ASV ins cells = assay: Cell proliferation, Ba/F3 EGFR ASV ins (CellTiter-Glo, 72 h); conditions: Ba/F3 EGFR, 72 h;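 further: IL3-independent Ba/F3 cells transduced with EGFR V769_D770insASV, cellular ATP luminescence after compound exposure, growth relative to DMSO control with the day-0 baseline reading subtracted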
[4] = tested on: NCI-H1975 EGFR L858R/T790M cells; assay: Cell proliferation, NCI-H1975 EGFR L858R/T790M (CellTiter-Glo, 72 h); conditions: Homo sapiens, NCI-H1975, 72 h;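 further: viable cells quantified by luciferase-based ATP luminescence, proliferation expressed relative to DMSO-treated wells (100%) after subtracting a parallel plate read at the time of dosing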
[5] = tested on: Her2 exon 20 insertion YVMA transduced NIH-3T3 cell line; assay: Cell proliferation, Her2 YVMAins NIH-3T3 (CellTiter-Glo, 72 h); conditions: Mus musculus, NIH3T3, 72 h, Her2 YVMAins cells, 72 h proliferation; read-out: Her2 Exon 20 YVMA insertion GI50;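 further: viable cells quantified by ATP luminescence, growth over a day-zero baseline plate expressed as percent of DMSO control growth, compound dilution series in 10% FBS medium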
WT EGFR cell line A-431 = assay: Cell proliferation, WT EGFR A431 (CellTiter-Glo, 72 h); conditions: Homo sapiens, A-431, 72 h;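 further: proliferation from a luminescent ATP viability signal, expressed as 100 × (treated minus time-zero plate) over (DMSO control minus time-zero plate), cells grown with 10% FBS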
OCI-LY-10 cells = assay: BTK (wt) cell proliferation, OCI-LY-10 (CellTiter-Glo, 72 h); conditions: Homo sapiens, OCI-Ly10, 72 h, OCI-LY-10 cells, 72 h, CellTiter-Glo; read-out: BTK WT OCI-LY-10 GI50;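 further: viable cells quantified via cellular ATP luminescence, proliferation given as percent of DMSO control after subtracting a duplicate plate read at time of dosing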
Experimental: (§1) OCI-LY-10 at 3,750 cells/well, TMD-8 and Ri-1 at 2,000 cells/well, and DB at 1,250 cells/well, respectively, were sorted into 384-well plates in RPMI1640 medium with 10% FBS. After overnight incubation, all cells were incubated with compound at a series of concentrations. Meanwhile, a duplicated plate of each cell line was prepared for measuring G0 value. The dosed plates were further incubated for 72 hours and the number of viable cells was measured by CellTiter-Glo® Luminescent Cell Viability Assay (Promega), a luminescent method for determining the number of viable cells through measurement of cellular ATP concentration using Envision plate reader (PerkinElmer). The percentage of proliferation was calculated as: % Proliferation = 100 × (G3 value of sample well - G0 value)/(G3 value of DMSO control - G0 value).

TMD-8 cells = assay: BTK (wt) cell proliferation, TMD-8 (CellTiter-Glo, 72 h); conditions: Homo sapiens, TMD8, 72 h, TMD-8 cells, 72 h, CellTiter-Glo; read-out: BTK WT TMD-8 GI50;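 further: viable cells quantified by ATP-based luminescence, proliferation expressed as percent of DMSO control after subtracting a time-zero baseline plate read at dosing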
Ri-1 cells = assay: BTK (wt) cell proliferation, Ri-1 (CellTiter-Glo, 72 h); conditions: Ri-1, 72 h, Ri-1 cells, 72 h, CellTiter-Glo; read-out: BTK WT Ri-1 GI50;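 further: viable cells quantified as cellular ATP luminescence, proliferation normalized to a time-zero plate and the DMSO control, compounds tested across a dilution series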
Experimental: as §1

DB cells = assay: BTK (wt) cell proliferation, DB (CellTiter-Glo, 72 h); conditions: Homo sapiens, DB, DB cells, CellTiter-Glo, read-out: Non-BCR activated DB GI50;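 further: DB cells in 384-well plates given a dilution series of compound, viable cells read by ATP luminescence, growth expressed versus DMSO control after subtracting a time-zero plate reading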
[6] = Ba/F3 EGFR NPH ins, 72 h proliferation, read-out: EGFR Exon20 NPH insertion GI50
[7] = Ba/F3 EGFR ASV ins, 72 h proliferation, read-out: EGFR Exon20 ASV insertion GI50
[8] = NCI-H1975, 72 h proliferation, read-out: EGFR L858R and T790M mutation GI50
[9] = A431, 72 h proliferation, read-out: EGFR WT A431 GI50

T5 sequence (P00533 25-1210): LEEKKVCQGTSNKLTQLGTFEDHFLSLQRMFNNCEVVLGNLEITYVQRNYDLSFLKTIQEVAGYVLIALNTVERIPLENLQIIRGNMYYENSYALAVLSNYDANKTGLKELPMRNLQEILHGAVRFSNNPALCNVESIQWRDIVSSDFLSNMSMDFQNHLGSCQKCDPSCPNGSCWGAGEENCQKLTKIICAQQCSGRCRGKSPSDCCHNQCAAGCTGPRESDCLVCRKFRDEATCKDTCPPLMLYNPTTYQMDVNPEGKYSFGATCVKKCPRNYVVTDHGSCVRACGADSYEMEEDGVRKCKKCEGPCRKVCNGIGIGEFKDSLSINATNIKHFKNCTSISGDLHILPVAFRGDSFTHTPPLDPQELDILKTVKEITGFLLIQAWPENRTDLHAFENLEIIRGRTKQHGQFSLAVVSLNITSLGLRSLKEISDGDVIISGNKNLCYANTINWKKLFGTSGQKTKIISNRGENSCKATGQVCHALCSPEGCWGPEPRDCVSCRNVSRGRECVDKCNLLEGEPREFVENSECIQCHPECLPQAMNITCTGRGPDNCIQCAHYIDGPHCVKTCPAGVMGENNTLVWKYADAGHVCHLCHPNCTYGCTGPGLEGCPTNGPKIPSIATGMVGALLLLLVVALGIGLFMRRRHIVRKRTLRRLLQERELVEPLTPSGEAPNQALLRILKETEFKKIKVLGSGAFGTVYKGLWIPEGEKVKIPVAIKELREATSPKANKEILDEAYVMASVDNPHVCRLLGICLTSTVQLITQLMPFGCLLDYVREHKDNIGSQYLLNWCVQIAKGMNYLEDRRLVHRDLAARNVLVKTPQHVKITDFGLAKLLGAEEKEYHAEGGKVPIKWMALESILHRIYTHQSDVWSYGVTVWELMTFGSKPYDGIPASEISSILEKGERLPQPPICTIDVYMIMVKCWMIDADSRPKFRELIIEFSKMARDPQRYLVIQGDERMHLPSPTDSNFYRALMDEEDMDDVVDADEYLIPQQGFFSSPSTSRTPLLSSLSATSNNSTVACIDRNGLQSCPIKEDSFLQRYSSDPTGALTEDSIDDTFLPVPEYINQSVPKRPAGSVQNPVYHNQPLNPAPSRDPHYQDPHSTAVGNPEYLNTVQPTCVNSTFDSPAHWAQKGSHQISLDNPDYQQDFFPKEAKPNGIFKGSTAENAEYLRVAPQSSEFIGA
T4 sequence (P04626 with tags, fused parts or gaps INS775YVMA): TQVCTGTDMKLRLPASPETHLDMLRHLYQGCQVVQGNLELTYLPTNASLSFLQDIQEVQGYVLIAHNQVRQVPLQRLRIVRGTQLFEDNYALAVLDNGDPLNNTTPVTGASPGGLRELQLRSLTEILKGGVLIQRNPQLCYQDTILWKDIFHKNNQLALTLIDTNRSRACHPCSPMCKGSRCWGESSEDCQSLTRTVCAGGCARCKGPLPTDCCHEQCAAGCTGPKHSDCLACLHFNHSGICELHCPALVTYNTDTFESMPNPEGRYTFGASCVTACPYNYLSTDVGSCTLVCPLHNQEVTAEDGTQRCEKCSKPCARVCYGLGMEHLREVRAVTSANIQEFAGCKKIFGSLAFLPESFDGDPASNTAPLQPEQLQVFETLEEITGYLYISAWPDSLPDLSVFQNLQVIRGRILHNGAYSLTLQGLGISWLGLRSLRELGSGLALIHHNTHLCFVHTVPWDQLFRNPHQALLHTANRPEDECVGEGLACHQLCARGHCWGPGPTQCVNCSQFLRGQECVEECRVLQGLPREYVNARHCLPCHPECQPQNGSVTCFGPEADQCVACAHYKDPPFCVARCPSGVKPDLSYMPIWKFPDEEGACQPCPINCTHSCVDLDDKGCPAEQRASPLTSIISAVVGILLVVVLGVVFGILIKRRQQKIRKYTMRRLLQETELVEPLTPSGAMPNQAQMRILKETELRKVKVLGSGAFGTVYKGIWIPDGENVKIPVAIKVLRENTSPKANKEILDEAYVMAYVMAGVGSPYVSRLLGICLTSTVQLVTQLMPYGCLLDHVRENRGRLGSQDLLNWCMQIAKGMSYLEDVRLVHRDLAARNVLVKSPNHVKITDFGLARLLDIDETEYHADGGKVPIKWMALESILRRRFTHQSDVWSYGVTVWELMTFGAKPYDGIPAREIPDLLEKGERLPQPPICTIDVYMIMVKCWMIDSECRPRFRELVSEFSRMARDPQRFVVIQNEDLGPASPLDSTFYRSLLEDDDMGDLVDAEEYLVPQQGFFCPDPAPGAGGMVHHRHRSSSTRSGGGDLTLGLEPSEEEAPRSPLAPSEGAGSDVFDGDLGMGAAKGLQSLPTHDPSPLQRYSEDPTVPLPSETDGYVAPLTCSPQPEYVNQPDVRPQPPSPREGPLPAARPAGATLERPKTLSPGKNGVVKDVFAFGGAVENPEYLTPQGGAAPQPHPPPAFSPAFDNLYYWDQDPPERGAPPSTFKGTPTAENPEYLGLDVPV
T1 sequence (P00533 with tags, fused parts or gaps INS773NPH): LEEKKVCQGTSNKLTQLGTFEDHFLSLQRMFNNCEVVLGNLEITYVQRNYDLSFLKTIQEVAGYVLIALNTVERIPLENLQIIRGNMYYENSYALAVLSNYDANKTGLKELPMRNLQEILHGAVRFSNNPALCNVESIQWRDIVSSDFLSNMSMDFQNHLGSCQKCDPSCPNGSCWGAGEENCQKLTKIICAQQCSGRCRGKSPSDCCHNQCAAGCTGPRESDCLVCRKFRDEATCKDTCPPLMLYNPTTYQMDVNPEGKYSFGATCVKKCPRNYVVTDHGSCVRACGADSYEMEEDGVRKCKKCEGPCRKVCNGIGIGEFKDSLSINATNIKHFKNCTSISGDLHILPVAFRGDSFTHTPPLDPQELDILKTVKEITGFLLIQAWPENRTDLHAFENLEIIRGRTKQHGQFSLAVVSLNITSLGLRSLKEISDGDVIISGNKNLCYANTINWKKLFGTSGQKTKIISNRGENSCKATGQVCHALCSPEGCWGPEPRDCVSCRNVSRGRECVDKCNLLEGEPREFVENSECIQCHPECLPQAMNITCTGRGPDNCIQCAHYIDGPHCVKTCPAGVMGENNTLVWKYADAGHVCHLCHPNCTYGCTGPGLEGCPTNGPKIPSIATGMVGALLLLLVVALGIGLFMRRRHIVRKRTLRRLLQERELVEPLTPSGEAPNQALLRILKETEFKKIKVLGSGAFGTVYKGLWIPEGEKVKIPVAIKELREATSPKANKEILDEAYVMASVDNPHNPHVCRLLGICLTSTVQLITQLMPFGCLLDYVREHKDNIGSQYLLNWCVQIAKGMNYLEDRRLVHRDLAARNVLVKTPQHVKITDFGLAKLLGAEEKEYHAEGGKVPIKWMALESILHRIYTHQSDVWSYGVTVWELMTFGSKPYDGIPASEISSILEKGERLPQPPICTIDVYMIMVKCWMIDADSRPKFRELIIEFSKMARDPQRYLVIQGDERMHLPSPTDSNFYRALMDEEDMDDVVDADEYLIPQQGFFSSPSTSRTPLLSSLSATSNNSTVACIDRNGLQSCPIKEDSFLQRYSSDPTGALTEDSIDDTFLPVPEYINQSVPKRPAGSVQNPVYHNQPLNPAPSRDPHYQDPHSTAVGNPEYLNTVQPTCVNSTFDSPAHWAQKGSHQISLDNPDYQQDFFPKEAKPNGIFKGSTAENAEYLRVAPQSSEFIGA
T3 sequence (P00533 25-1210 T790M/L858R): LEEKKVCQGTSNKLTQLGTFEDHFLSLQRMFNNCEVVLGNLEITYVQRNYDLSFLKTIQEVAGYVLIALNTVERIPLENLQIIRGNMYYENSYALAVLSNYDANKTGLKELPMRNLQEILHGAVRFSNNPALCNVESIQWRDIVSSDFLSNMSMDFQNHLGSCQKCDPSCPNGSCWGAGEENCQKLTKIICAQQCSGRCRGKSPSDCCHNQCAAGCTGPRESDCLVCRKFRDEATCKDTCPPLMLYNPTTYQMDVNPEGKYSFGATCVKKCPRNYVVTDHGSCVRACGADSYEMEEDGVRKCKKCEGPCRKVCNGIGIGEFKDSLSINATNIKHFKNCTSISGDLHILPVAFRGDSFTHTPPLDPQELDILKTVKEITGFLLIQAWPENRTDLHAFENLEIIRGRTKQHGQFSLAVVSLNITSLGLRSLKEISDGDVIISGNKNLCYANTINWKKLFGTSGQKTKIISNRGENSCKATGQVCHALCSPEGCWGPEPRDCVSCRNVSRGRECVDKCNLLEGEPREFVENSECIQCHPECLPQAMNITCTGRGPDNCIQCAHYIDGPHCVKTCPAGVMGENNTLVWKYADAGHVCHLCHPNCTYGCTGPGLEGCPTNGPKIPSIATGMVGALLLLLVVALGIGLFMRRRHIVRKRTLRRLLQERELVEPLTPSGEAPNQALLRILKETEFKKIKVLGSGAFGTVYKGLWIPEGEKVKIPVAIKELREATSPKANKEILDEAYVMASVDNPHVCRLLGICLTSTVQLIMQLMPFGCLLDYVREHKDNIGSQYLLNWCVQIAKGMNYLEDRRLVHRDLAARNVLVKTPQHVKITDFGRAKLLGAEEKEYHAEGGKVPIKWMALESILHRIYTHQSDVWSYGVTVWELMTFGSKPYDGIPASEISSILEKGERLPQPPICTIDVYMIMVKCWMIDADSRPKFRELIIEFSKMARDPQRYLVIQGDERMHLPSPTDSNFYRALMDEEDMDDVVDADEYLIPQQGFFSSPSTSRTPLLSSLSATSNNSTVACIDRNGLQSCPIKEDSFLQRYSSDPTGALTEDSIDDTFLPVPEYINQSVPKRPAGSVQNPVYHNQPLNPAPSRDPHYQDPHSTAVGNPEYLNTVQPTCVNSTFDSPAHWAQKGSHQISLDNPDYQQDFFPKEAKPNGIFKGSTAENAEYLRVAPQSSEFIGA

| SMILES | IC50 [1] [nM] | IC50 [2] [nM] | IC50 (EGFR L858R&T790M) [nM] | IC50 [3] [nM] | IC50 (WT EGFR) [nM] | GI50 (Ba/F3 EGFR NPH ins cells; [6]) [nM] | GI50 (Ba/F3 EGFR ASV ins cells; [7]) [nM] | GI50 [4, 8] [nM] | GI50 [5] [nM] | GI50 (WT EGFR cell line A-431; [9]) [nM] | GI50 (Ba/F3 EGFR NPH ins cells; read-out: EGFR Exon20 NPH insertion GI50 (nM)) [nM] | GI50 (Ba/F3 EGFR ASV ins cells; read-out: EGFR Exon20 ASV insertion GI50 (nM)) [nM] | GI50 ([4]; read-out: EGFR L858R and T790M mutation GI50 (nM)) [nM] | GI50 (WT EGFR cell line A-431; read-out: EGFR WT A431 GI50 (nM)) [nM] | GI50 (OCI-LY-10 cells) [nM] | GI50 (TMD-8 cells) [nM] | GI50 (Ri-1 cells) [nM] | GI50 (DB cells) [nM] |
| --- | --- | --- | --- | --- | --- | --- | --- | --- | --- | --- | --- | --- | --- | --- | --- | --- | --- | --- |
| C=CC(=O)Nc1cc(Nc2ncnc(Nc3ccccc3C(C)(C)O)n2)c(OC)cc1N1CCC[C@@H](N(C)C)C1 [Compound 1, (R)-N-(2-(3-(dimethylamino)piperidin-1-yl)-5-(4-(2-(2-hydroxypropan-2-yl)phenylamino)-1,3,5-triazin-2-ylamino)-4-methoxyphenyl)acrylamide] | 423 | 386 | 5.2 | 318 | 599 | 999 | 926 | 282 | 905 | 334 | – | – | – | – | – | – | – | – |
| COc1cc(N(C)CCN(C)C)c(NC(=O)/C=C/CN(C)C)cc1Nc1ncnc(Nc2cc(F)c(F)cc2C(C)(C)O)n1 [Compound 5, (E)-N-(5-(4-(4,5-difluoro-2-(2-hydroxypropan-2-yl)phenylamino)-1,3,5-triazin-2-ylamino)-2-((2-(dimethylamino)ethyl)(methyl)amino)-4-methoxypheny 1)-4-(dimethylamino)but-2-enamide] | 271 | 170 | 6.3 | 36.2 | 90.3 | 461 | 234 | 114 | 68.9 | 117 | – | – | – | – | – | – | – | – |
| C=CC(=O)Nc1cc(Nc2ncnc(Nc3cc(F)c(F)cc3C(C)(C)O)n2)c(OC)cc1N1CC[C@H]2CN(C)C[C@H]21 [Compound 25, N-(5-(4-(4,5-difluoro-2-(2-hydroxypropan-2-yl)phenylamino)-1,3,5-triazin-2-ylamino)-4-methoxy-2-((3aS,6aS)-5-methylhexahydropyrrolo[3,4-b]pyrrol-1(2H)-yl)phenyl) acrylamide] | 376 | 388 | 7.9 | 534 | 838 | 618 | 552 | 165 | 989 | 329 | – | – | – | – | – | – | – | – |
| C=CC(=O)Nc1cc(Nc2ncnc(Nc3cc(Cl)c(F)cc3C(C)(C)O)n2)c(OC)cc1N(C)CCN1CCC[C@@H]1C [Compound 42, (S)-N-(5-(4-(5-chloro-4-fluoro-2-(2-hydroxypropan-2-yl)phenylamino)-1,3,5-triazin-2-ylamino)-4-methoxy-2-(methyl(2-(2-methylpyrrolidin-1-yl)ethyl)amino)phenyl) acrylamide] | 35.8 | 63.3 | 1.8 | 33.9 | 133 | 137 | 144 | 8.5 | 195 | 53.2 | – | – | – | – | – | – | – | – |
| C=CC(=O)Nc1cc(Nc2ncnc(Nc3cc(F)c(F)cc3C(C)(O)CC)n2)c(OC)cc1N1CC[C@H]2CN(C)C[C@H]21 (stereo partly drawn) [Compound 50, N-(5-(4-(4,5-difluoro-2-(2-hydroxybutan-2-yl)phenylamino)-1,3,5-triazin-2-ylamino)-4-methoxy-2-((3 aS, 6aS)-5-methylhexahydropyrrolo[3,4-b]pyrrol-1 (2H)-yl)phenyl) acrylamide] | 2630 | 308 | 19 | 382 | 1110 | 802 | 449 | 30 | 1080 | 277 | – | – | – | – | – | – | – | – |
| C=CC(=O)Nc1cc(Nc2ncnc(Nc3cc(Cl)c(F)cc3C(C)(O)CC)n2)c(OC)cc1N1CCC[C@H]1CN(C)C (stereo partly drawn) [Compound 64, N-(5-(4-(5-chloro-4-fluoro-2-(2-hydroxybutan-2-yl)phenylamino)-1,3,5-triazin-2-ylamino)-2-((S)-2-((dimethylamino)methyl)pyrrolidin-1-yl)-4-methoxyphenyl)acrylamide] | 267 | 240 | 7.1 | 143 | 555 | 359 | 395 | 24.2 | 640 | 220 | – | – | – | – | – | – | – | – |
| C=CC(=O)Nc1cc(Nc2ncnc(Nc3cc(Cl)c(F)cc3C(C)(C)O)n2)c(OC)cc1N1CCC[C@H]1CN(C)C [Compound 65, (S)-N-(5-(4-(5-chloro-4-fluoro-2-(2-hydroxypropan-2-yl)phenylamino)-1,3,5-triazin-2-ylamino)-2-(2-((dimethylamino)methyl)pyrrolidin-1-yl)-4-methoxyphenyl)acrylamide] | 315 | 358 | 7.9 | 188 | 479 | 382 | 484 | 29.6 | 776 | 234 | – | – | – | – | – | – | – | – |
| C=CC(=O)Nc1cc(Nc2ncc(OC)c(Nc3cc(Cl)c(F)cc3C(C)(C)O)n2)c(OC)cc1N(C)CCN(C)C [Compound 81, N-(5-(4-(5-chloro-4-fluoro-2-(2-hydroxypropan-2-yl)phenylamino)-5-methoxypyrimidin-2-ylamino)-2-((2-(dimethylamino)ethyl)(methyl)amino)-4-methoxyphenyl)acrylamide] | 81.5 | – | 1.1 | 303 | – | 136 | 149 | 4.6 | 354 | 35.7 | – | – | – | – | – | – | – | – |
| C=CC(=O)Nc1cc(Nc2nccc(Nc3cc(Cl)c(F)cc3C(C)(C)O)n2)c(OC)cc1N(C)C[C@H]1C[C@H](C)CN1C [Compound 90, N-(5-(4-(5-chloro-4-fluoro-2-(2-hydroxypropan-2-yl)phenylamino)pyrimidin-2-ylamino)-2-((((2R,4S)-1,4-dimethylpyrrolidin-2-yl)methyl)(methyl)amino)-4-methoxyphenyl) acrylamide formic acid salt] | 30.8 | 57.2 | – | 27.6 | – | – | – | – | 284 | – | 76.4 | 83.1 | 6.1 | 59.4 | 82.7 | 45 | 83.8 | > 3000 |
